Results reported in patent US10369145B2, “Coumarin derivatives and methods of use in treating hyperproliferative diseases” (DISCOVERYBIOMED, INC., priority 2013, dated 2019).

How the values were obtained:
[1] = system: hyperproliferative PKD cells (cloned polycystic kidney tissue cells); assay: Concentration-response in primary cultures cloned from cystic kidney tissue; assay type: cell-based; conditions: 72 hour treatment; for IC50 / Max inhibition: hyperproliferative PKD cells
Method: (§1) The concentration-response effects of Compound DBM 228, Compound DBM 308, Compound DBM 101, and Compound DBM 328 were determined in primary cultures derived as ‘clones’ from cystic versus non-cystic kidney tissue. CRC graphs, IC50 values, and the percent maximum inhibition versus lowest doses without effect were calculated with GraphPad Prism software. […] There was also a marked separation in effect between hyperproliferative PKD cells (FIG. 5A and Table 3) and WT cells (FIG. 5B and Table 4).

myeloma cells = assay type: cell-based; conditions: for efficacy and potency (FIG. 4) / GI50 / TGI: myeloma cells; for GI50 / TGI: 48 h drug exposure
Method: For a typical screening experiment to identify the compounds, cells were seeded into 96- or 384-well microtiter plates at plating densities pre-determined for each cell line to ensure drug exposure occurs during the proliferative phase well before confluency is reached. After seeding, cells were incubated for 24 h prior to addition of experimental drugs. After 24 h, a test plate was assayed (CellTiterGlo—measurement of cytosolic ATP) to determine a baseline measurement of the cell population for each cell line at the time of drug addition. Experimental drugs were then added and cells were cultured for a 48 h drug exposure window. […] Values were calculated for each of these three parameters if the level of activity was reached; however, if the effect was not reached or was exceeded, the value for that parameter was expressed as greater or less than the maximum or minimum concentration tested.

[2] = system: primary human glioblastoma multiforme (GBM) cells; assay: Neurosphere growth of primary human GBM cells; assay type: cell-based; conditions: GBM cells grown in vitro on 3D neurospheres
Excerpt: Data are expressed as mean±SEM and represent at least two independent experiments with sample replicates.

tubulin = assay: Biochemical tubulin polymerization; conditions: FIG. 11C
Method: Following 24 hours of treatment with Compound DBM 228, Compound DBM 318, and Compound DBM 328, caspase 3/7 activation in U251MG cells was determined. The detection of caspase 3/7 activation in U251MG cells indicates activation of apoptosis. Tubulin polymerization was determined for Compounds DBM 227, DBM 228, DBM 308, DBM 318, DBM 701, DBM 707, DBM 715, paclitaxel, vincristine, and negative control Compound DBM 328. […] Paclitaxel served as polymerization enhancer control and vincristine served as polymerization inhibitor control.

[3] = system: WT cells (cloned non-cystic kidney tissue cells); assay: Concentration-response in primary cultures cloned from non-cystic kidney tissue; assay type: cell-based; conditions: 72 hour treatment
Method: as §1

NCI/ADR-RES = conditions: for potency in multi-drug resistant line, in words (FIG. 9): NCI-ADR/RES versus drug-responsive cells
Excerpt: TGI means the drug concentration resulting in total growth inhibition or “cytostasis.” LC50 is the concentration of drug resulting in a 50% reduction in the measured cytosolic ATP at the end of the drug treatment as compared to that at the beginning, indicating a net loss of cells following treatment (cytotoxicity).
A major limitation with the anti-mitotic drugs in particular and in conventional chemotherapeutics in general, is their susceptibility to cellular mechanisms of adaptive/intrinsic multi-drug resistance (i.e., MDR efflux pumps such as p-glycoprotein, MRP1).

[4] = system: primary human idiopathic pulmonary fibrosis (IPF) myofibroblasts; assay: Growth of primary human IPF myofibroblasts in vitro; assay type: cell-based; conditions: CRC
NCI-60 cell panel = assay: NCI-60 cell panel, whole panel; assay type: cell-based, human; conditions: average in the NCI-60 cell panel
[5] = system: human cystic ADPKD and non-cystic renal epithelial cells; assay: Proliferating versus confluent cystic ADPKD and normal renal cells; assay type: cell-based
Method: The compounds described herein are effective for inhibiting cellular proliferation in hyperproliferative cell types. To study the effects of these compounds, an assay was developed to differentiate the effects of the compounds on proliferating versus confluent cells. The assay design generates a proliferating density 24 hours after seeding and provides a 3-day active cell growth/doubling window in which to gauge the anti-proliferative effect of the compounds described herein. […] In this 3-day growth window, cell number increases with daily doublings across the 72-hour period (see FIG. 1).
In each assay design, compounds were added at the 24-hour timepoint after cell seeding. The effect of the compounds, relative to vehicle control and to VelCade (a proteasome inhibitor approved in the U.S. for treating relapsed multiple myeloma and mantle cell lymphoma) as a positive control, was assessed across the 3-day growth window for proliferating cells and on an already near confluent culture of cells for the same time period. […]
Cell number at the end of the assay was determined using the CELLTITER-GLO Luminescent Cell Viability Assay (Promega; Madison, Wis.). The CELLTITER-GLO Luminescent Cell Viability Assay is a homogeneous method of determining the number of viable cells in culture based on quantitation of the ATP present, an indicator of metabolically active cells. […]

| GI50 (myeloma cells) [nM] | IC50 [3] [nM] | SMILES | IC50 [1] [nM] | Max inhibition [1] [%] | CC50 (myeloma cells) [nM] | efficacy and potency (FIG. 4) (myeloma cells) | TGI (myeloma cells) | effect on biochemical tubulin polymerization, in words (tubulin) | Max inhibition [3] [%] | also measured |
| --- | --- | --- | --- | --- | --- | --- | --- | --- | --- | --- |
| 166 | > 100000 | COc1ccccc1Nc1nc(-c2cc3cccc(Cl)c3oc2=O)cs1 [Compound DBM 308] | 540 | 84 | > 4000 | significant efficacy and potency | 247 nM | modestly inhibited | 52 | cytostatic effect, in words [1]: potent and effective analog; concentration giving equivalent cytotoxic effect [2]: 3 µM; cytostatic effect, in words [2]: cytostatic effect at nanomolar doses; effect on neurosphere growth, in words [2]: dose-dependent growth arrest to cytotoxic effect |
| 131 | – | COc1ccccc1Nc1nc(-c2cc3cccc(C)c3oc2=O)cs1 [Compound DBM 707] | – | – | 544 | significant efficacy and potency | 183 nM | modestly inhibited | – | – |
| 133 | – | COc1ccccc1Nc1nc(-c2cc3cccc(Br)c3oc2=O)cs1 [Compound DBM 318] | – | – | 226 | significant efficacy and potency | 164 nM | modestly inhibited | – | – |
| 2110 | > 100000 | COc1ccccc1Nc1nc(-c2cc3cccc(C(=O)O)c3oc2=O)cs1 [Compound DBM 328] | 78000 | 48 | > 4000 | – | >4,000 nM | also inhibited microtubule polymerization | 28 | anti-proliferative effect, in words [4]: without effect throughout the CRC |

Second part, the compound before the results:

| SMILES | GI50 (myeloma cells) [nM] | IC50 [3] [nM] | IC50 [1] [nM] | Max inhibition [1] [%] | CC50 (myeloma cells) [nM] | efficacy and potency (FIG. 4) (myeloma cells) | TGI (myeloma cells) | effect on biochemical tubulin polymerization, in words (tubulin) | Max inhibition [3] [%] | also measured |
| --- | --- | --- | --- | --- | --- | --- | --- | --- | --- | --- |
| CC(=O)O[C@H]1C(=O)[C@@]2(C)[C@H]([C@H](OC(=O)c3ccccc3)[C@]3(O)C[C@H](OC(=O)[C@H](O)[C@@H](NC(=O)c4ccccc4)c4ccccc4)C(C)=C1C3(C)C)[C@]1(OC(C)=O)CO[C@@H]1C[C@@H]2O [paclitaxel, reference compound] | – | – | – | – | – | – | – | – | – | potency in multi-drug resistant line, in words (FIG. 9) (NCI/ADR-RES): significantly right-shifted |
| COc1ccccc1Nc1nc(-c2cc3ccc(N)c([N+](=O)[O-])c3oc2=O)cs1 [Compound DBM 715] | – | – | – | – | – | significant efficacy and potency | – | modestly inhibited | – | – |
| CC[C@]1(O)C[C@H]2CN(CCc3c([nH]c4ccccc34)[C@@](C(=O)OC)(c3cc4c(cc3OC)N(C=O)[C@H]3[C@@](O)(C(=O)OC)[C@H](OC(C)=O)[C@]5(CC)C=CCN6CC[C@]43[C@@H]65)C2)C1 [vincristine, reference compound] | – | – | – | – | – | – | – | – | – | potency in multi-drug resistant line, in words (FIG. 9) (NCI/ADR-RES): significantly right-shifted |
| Cn1nnc2c(C(N)=O)ncn2c1=O [TMZ, temozolomide, reference compound] | – | – | – | – | – | – | – | – | – | concentration giving equivalent cytotoxic effect [2]: 500 µM |
| COc1ccccc1Nc1nc(-c2cc3cccc([N+](=O)[O-])c3oc2=O)cs1 [Compound DBM 227] | 137 | – | – | – | > 4000 | – | 404 nM | modestly inhibited | – | IC50 (NCI/ADR-RES; read-out: potency in the NCI-ADR/RES cell line, multi-drug resistant NCI-ADR/RES): 100 nM; GI50 (NCI-60 cell panel): 250 nM |
| COc1ccccc1Nc1nc(-c2cc3cccc(OC)c3oc2=O)cs1 [Compound DBM 101] | – | > 100000 | 7200 | 77 | – | – | – | – | 48 | effect, in words ([5]; confluent diseased cells and proliferating and confluent normal cells): only partially affected and at mid-micromolar doses; cytostatic effects, in words ([5]; proliferating cystic ADPKD cells): selective for hyperproliferative ‘diseased’ cells at potent nanomolar doses |
